According to patent US10793576B2, “Compound used as Bruton's tyrosine kinase inhibitor and preparation method and application thereof” (Chengdu Brilliant Pharmaceutical Co., LTD., priority 2017, dated 2020):
Read-outs that look alike come from different tables or passages of the source.

What was measured:
OCI-LY10 cells = experiment: Cell proliferation inhibition in vitro, OCI-ly10 cells by CCK-8 method; format: cell-based; details: 72 hours, read-out: Inhibitions of cell activities IC50 (nM) OCI-LY10
Protocol: (§1) Test Example 2: Determination of the Inhibition of Cell Proliferation Inhibitory Activity in
(§2) vitro of compounds using different cell lines
(§3) 2: Preparation of the Compounds:
(§4) The compounds to be tested were diluted with DMSO to prepare a mother liquor at a final concentration of 10 mM for later use.
(§5) 3.1. Test of TMD8 and OCI-ly10 Cells by CCK-8 Method
(§6) Logarithmic growth phase cells were collected, counted and resuspended in complete medium. The cell concentration was adjusted to a suitable concentration (determined according to the cell density optimization test results), and seeded to 96-well plate and 100 μl of the cell suspension was added to each well. The cells were incubated in an incubator at 37° C., 100% relative humidity and 5% C02 for 24 hours.
(§7) The compounds to be tested were diluted with the medium to the set corresponding action concentration, and the cells were added at 25 µl/well. The cells were incubated in an incubator at 37° C., 100% relative humidity and 5% C02 for 72 hours.
(§8) The medium was aspirated and discarded, and a complete medium containing 10% of the test reagent was added and the obtained system was incubated in a 37° C. incubator for 1 hour-4 hours.
(§9) As: OA of the sample (cell+test reagent+test compound)
(§10) Ac: OA of the negative control (cell+test reagent+DMSO)
(§11) Ab: OA of the positive control (medium+test reagent+DMSO)
(§12) IC50 curve fitting was performed using the software Graphpad Prism 5 or XLfit and IC50 values were calculated.

[1] = Pharmacokinetic test in SD rats (oral 10 mg/kg, intravenous 1 mg/kg); format: in vivo; details: SD rat; for F (po) %: oral 10 mg/kg vs intravenous 1 mg/kg; for clearance / half-life / AUC / Cmax / Tmax: male, plasma; for clearance / half-life: intravenous 1 mg/kg; for clearance: read-out: Cl (iv) (converted); for half-life: read-out: T½ (iv) h (converted); for AUC / Cmax / Tmax: oral 10 mg/kg
Protocol: SD rat, male (purchased from Shanghai Sippr-Bk Laboratory Animal Co., Ltd.), each tested compound was administered at a single dose to SD rats by oral administration (10 mg/kg, 3 rats in each group) and intravenous administration (1 mg/kg, 3 rats in each group) for the pharmacokinetic study. The tested compounds were dissolved using DMSO/[…] sodium chloride injection=5/95 (V/V), and vortexed for 1 minute, and after 1 minute of sonication, the compounds were formulated into solutions for administrations. Animals were fasted for 16-17 hours prior to oral administration and feeding was restored 4 hours after administration. After oral and intravenous administration, pharmacokinetic samples were collected from SD rats by jugular vein or cardiac puncture at the following time points: before administration, 5 minute, 15 minute, 30 minute, 1 hour, 2 hours, 4 hours, 6 hours, 8 hours and 24 hours after administration. 3 whole blood samples were collected at each time point, and the collected amount was about 0.2 mL, and the collected samples were anticoagulated by heparin sodium. After collection, the blood samples were immediately placed on ice and centrifuged to separate plasma within 30 minutes (centrifugation conditions: 8000 rpm, 6 minute, 2-8° C.). The collected plasma was stored at −70° C. prior to analysis. 50 μL of plasma sample was brought into a 1.5 mL centrifuge tube, 250 μL of internal standard solution (blank with no internal standard but the same volume of methanol added) was added, blended with vortex, centrifuged at 15000 rpm for 5 minutes. 200 μL of supernatant was taken and added to a 96-well sample plate and the samples were analyzed by LC-MS/MS.

TMD8 cells = experiment: Cell proliferation inhibition in vitro, TMD8 cells by CCK-8 method; format: cell-based; details: 72 hours, read-out: Inhibitions of cell activities IC50 (nM) TMD8
Protocol: as §1, §2, §3, §4, §5, §6, §7, §8, §9, §10, §11, §12

DOHH2 cells = experiment: Cell proliferation inhibition in vitro, DOHH2 cells by CTG assay; format: cell-based; details: read-out: Inhibitions of cell activities IC50 (nM) DOHH2
Protocol: as §1, §2, §3, §4
3.2 Test of DOHH2 Cells by CTG Assay
as §6
The compounds to be tested were diluted with the medium to the set corresponding action concentration, and the cells were added at 10 µl/well. The cells were incubated in an incubator set at 37° C., 100% relative humidity and 5% C02 for 72 hours.
The medium was aspirated and discarded, and 30 μl of test reagent was added. The plate was gentle shaken away from the light to lyse the cells.
as §9, §10, §11, §12

BTK kinase = BTK kinase (Homo sapiens (Human), UniProt Q06187); experiment: In vitro assay for the inhibition of BTK kinase activity (Mobility-Shift Assay); format: biochemical
Chain of BTK kinase (Q06187 whole entry): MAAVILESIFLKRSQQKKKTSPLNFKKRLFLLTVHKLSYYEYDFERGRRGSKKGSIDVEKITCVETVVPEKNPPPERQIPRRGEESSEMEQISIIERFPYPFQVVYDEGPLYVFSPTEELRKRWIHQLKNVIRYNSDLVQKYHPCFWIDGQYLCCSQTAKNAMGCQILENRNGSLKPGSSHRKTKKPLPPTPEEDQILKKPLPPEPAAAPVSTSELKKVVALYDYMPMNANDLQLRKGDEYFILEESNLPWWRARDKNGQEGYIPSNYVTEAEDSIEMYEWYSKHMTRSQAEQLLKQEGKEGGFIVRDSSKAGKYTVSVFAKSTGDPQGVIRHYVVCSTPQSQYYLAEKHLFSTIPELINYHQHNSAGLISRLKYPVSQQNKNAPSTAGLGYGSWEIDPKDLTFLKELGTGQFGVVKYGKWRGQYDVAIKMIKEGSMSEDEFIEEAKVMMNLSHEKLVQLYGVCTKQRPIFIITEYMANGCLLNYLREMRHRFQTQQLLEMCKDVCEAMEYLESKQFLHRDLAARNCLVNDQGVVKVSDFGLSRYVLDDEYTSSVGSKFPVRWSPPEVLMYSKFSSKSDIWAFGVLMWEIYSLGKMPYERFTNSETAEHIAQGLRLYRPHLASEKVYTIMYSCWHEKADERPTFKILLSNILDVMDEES
Method in brief: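 Fluorescently labelled peptide substrate converted by the kinase; substrate and phosphorylated product separated by charge on a microfluidic chip (mobility shift) and quantified separately. Results expressed as conversion rate; control wells received 100% DMSO.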

| IC50 (OCI-LY10 cells; Homo sapiens) [nM] | F (po) % [1] [%] | clearance [1] [mL/min/kg] | half-life [1] [min] | AUC [1] [ng·h/mL] | Cmax [1] [ng/mL] | Tmax [1] [min] | IC50 (BTK kinase) [nM] | Compound | IC50 (TMD8 cells; Homo sapiens) [nM] | IC50 (DOHH2 cells; Homo sapiens, DOHH-2, 72 hours) [nM] | IC50 (OCI-LY10 cells) [nM] | IC50 (TMD8 cells) [nM] | IC50 (DOHH2 cells; 72 hours) [nM] |
| --- | --- | --- | --- | --- | --- | --- | --- | --- | --- | --- | --- | --- | --- |
| 1.4 | 19.75 | 125 | 7.8 | 266 | 266 | 4.8 | – | CC#CC(=O)N1CCC[C@H]1c1nc(-c2ccc(C(=O)Nc3ccccn3)cc2)c2c(N)nccn12 [ACP-196, reference compound] | 1.3 | > 1000 | – | – | – |
| 0.34 | 34.53 | 32.7 | 33 | 1580 | 1590 | 21.6 | 3.1 | C=CC(=O)N1CC2CCCC2C1c1nc(-c2ccc(Oc3ccccc3)cc2)c2c(N)nccn12 (stereo not drawn) [Example 96] | 3.2 | 200 | – | – | – |
| 0.33 | – | – | – | – | – | – | 24 | C=CC(=O)N1C2CC[C@@H](C2)C1c1nc(-c2ccc(Oc3ccccc3)cc2)c2c(N)nccn12 (stereo partly drawn) [Example 98] | 6.8 | > 1000 | – | – | – |
| 2.7 | – | – | – | – | – | – | 39 | CC#CC(=O)N1C2CC[C@@H](C2)C1c1nc(-c2ccc(Oc3ccccc3)cc2)c2c(N)nccn12 (stereo partly drawn) [Example 99] | 5.4 | > 1000 | – | – | – |
| 0.78 | – | – | – | – | – | – | 47 | C=CC(=O)N1C2CN[C@@H](C2)C1c1nc(-c2ccc(Oc3ccccc3)cc2)c2c(N)nccn12 (stereo partly drawn) [Example 106] | 21.4 | > 1000 | – | – | – |
| 0.81 | – | – | – | – | – | – | 41 | CC#CC(=O)N1C2CN[C@@H](C2)C1c1nc(-c2ccc(Oc3ccccc3)cc2)c2c(N)nccn12 (stereo partly drawn) [Example 107] | 12.3 | 986 | – | – | – |
| 2.7 | – | – | – | – | – | – | 72 | C=CC(=O)N1C2C[C@@H](C1c1nc(-c3ccc(Oc4ccccc4)cc3)c3c(N)nccn13)N(C)C2 (stereo partly drawn) [Example 108] | 14.3 | > 1000 | – | – | – |
| 0.31 | – | – | – | – | – | – | 19 | C=CC(=O)N1C2C[C@@H](C1c1nc(-c3ccc(Oc4ccccc4)cc3)c3c(N)nccn13)N(C(C)C)C2 (stereo partly drawn) [Example 109] | 7.2 | 184 | – | – | – |
| 0.21 | – | – | – | – | – | – | 36 | C=CC(=O)N1C2C[C@@H](C1c1nc(-c3ccc(Oc4ccccc4)cc3)c3c(N)nccn13)N(C(C)=O)C2 (stereo partly drawn) [Example 110] | 1.2 | 198 | – | – | – |
| 2.1 | – | – | – | – | – | – | 30 | CC#CC(=O)N1C2C[C@@H](C1c1nc(-c3ccc(Oc4ccccc4)cc3)c3c(N)nccn13)N(C(C)C)C2 (stereo partly drawn) [Example 111] | 4.3 | 672 | – | – | – |
| 0.41 | – | – | – | – | – | – | 21 | CN(C)C/C=C/C(=O)N1CC2(CC2)C[C@H]1c1nc(-c2ccc(C(=O)Nc3ccccn3)cc2)c2c(N)nccn12 [Example 112, (S,E)-4-(8-amino-3-(5-(4-(dimethylamino)but-2-enoyl)-5-azaspiro[2.4]heptan-6-yl)imidazo[1,5-a]pyrazin-1-yl)-N-(pyridin-2-yl)benzamide] | 0.31 | 902 | – | – | – |
| 7.4 | – | – | – | – | – | – | 4.6 | CN(C)C/C=C/C(=O)N1CC2CCCC2[C@H]1c1nc(-c2ccc(C(=O)Nc3ccccn3)cc2)c2c(N)nccn12 (stereo partly drawn) [Example 113, 4-(8-amino-3-((1S)-2-((E)-4-(dimethylamino)-2-butenoyl)octahydrocyclopenta [c]pyrrol-1-yl)imidazo[1,5-a]pyrazin-1-yl)-N-(pyridin-2-yl)benzamide] | 12.5 | > 1000 | – | – | – |
| 12.1 | – | – | – | – | – | – | 26 | CN(C/C=C/C(=O)N1CC2CCCC2[C@H]1c1nc(-c2ccc(C(=O)Nc3ccccn3)cc2)c2c(N)nccn12)C1CC1 (stereo partly drawn) [Example 115, 4-(8-amino-3-((1S)-2-((E)-4-(cyclopropyl(methyl)amino)-2-butenoyl)octahydrocyclopenta[c]pyrrol-1-yl)imidazo[1,5-a]pyrazin-1-yl)-N-(pyridin-2-yl) benzamide] | 17.6 | > 1000 | – | – | – |
| 4.1 | – | – | – | – | – | – | 24 | C=CC(=O)N1CC2CCC1(c1nc(-c3ccc(C(=O)Nc4ccccn4)cc3)c3c(N)nccn13)CC2 [Example 120, 4-(3-(2-acryloyl-2-azabicyclo[2.2.2]octan-1-yl)-8-aminoimidazo[1,5-a]pyrazin-1-yl)-N-(pyridin-2-yl)benzamide] | 6.4 | 921 | – | – | – |
| 1.5 | – | – | – | – | – | – | 18 | C=CC(=O)N1CC2(CC2)C[C@H]1c1nc(-c2cccc(C(=O)Nc3ccccn3)c2)c2c(N)nccn12 [Example 124, (S)-3-(3-(5-acryloyl-5-azaspiro[2.4]heptan-6-yl)-8-aminoimidazo[1,5-a]pyrazin-1-yl)-N-(pyridin-2-yl)benzamide] | 11.8 | 629 | – | – | – |
| 8.7 | – | – | – | – | – | – | 58 | C=CC(=O)N1CC2(CC2)C[C@H]1c1nc(-c2ccccc2C(=O)Nc2ccccn2)c2c(N)nccn12 [Example 125, (S)-2-(3-(5-acryloyl-5-azaspiro[2.4]heptan-6-yl)-8-aminoimidazo[1,5-a]pyrazin-1-yl)-N-(pyridin-2-yl)benzamide] | 24.9 | > 1000 | – | – | – |
| 0.41 | 2.67 | – | – | 218 | 217 | 19.8 | – | C=CC(=O)N1CCC[C@@H](n2nc(-c3ccc(Oc4ccccc4)cc3)c3c(N)ncnc32)C1 [Ibrutinib, reference compound] | 0.28 | 705 | – | – | – |

| Compound | IC50 (OCI-LY10 cells; Homo sapiens) [nM] | F (po) % [1] [%] | clearance [1] [mL/min/kg] | half-life [1] [min] | AUC [1] [ng·h/mL] | Cmax [1] [ng/mL] | Tmax [1] [min] | IC50 (BTK kinase) [nM] | IC50 (TMD8 cells; Homo sapiens) [nM] | IC50 (DOHH2 cells; Homo sapiens, DOHH-2, 72 hours) [nM] | IC50 (OCI-LY10 cells) [nM] | IC50 (TMD8 cells) [nM] | IC50 (DOHH2 cells; 72 hours) [nM] |
| --- | --- | --- | --- | --- | --- | --- | --- | --- | --- | --- | --- | --- | --- |
| C=CC(=O)N1C2CCC1(c1nc(-c3ccc(Oc4ccccc4)cc3)c3c(N)nccn13)COC2 (stereo not drawn) [Example 104] | 0.42 | – | – | – | – | – | – | 4.6 | 3.6 | 718 | – | – | – |
| CC#CC(=O)N1C2CCC1(c1nc(-c3ccc(Oc4ccccc4)cc3)c3c(N)nccn13)COC2 (stereo not drawn) [Example 105] | 0.41 | – | – | – | – | – | – | 18 | 8.4 | 916 | – | – | – |
| C=CC(=O)N1[C@H]2CC[C@@H]1[C@@H](c1nc(-c3ccc(C(=O)Nc4ccccn4)cc3)c3c(N)nccn13)C2 [Example 118, 4-(3-((1R,2S,4S)-7-acryloyl-7-azabicyclo[2.2.1]heptan-2-yl)-8-aminoimidazo[1,5-a]pyrazin-1-yl)-N-(pyridin-2-yl)benzamide] | 4.1 | – | – | – | – | – | – | 5.6 | 3.9 | 712 | – | – | – |
| CC#CC(=O)N1[C@H]2CC[C@@H]1[C@@H](c1nc(-c3ccc(C(=O)Nc4ccccn4)cc3)c3c(N)nccn13)C2 [Example 119, 4-(8-amino-3-((1R,2S,4S)-7-(but-2-ynoyl)-7-azabicyclo[2.2.1]heptan-2-yl)imidazo[1,5-a]pyrazin-1-yl)-N-(pyridin-2-yl)benzamide] | 0.42 | – | – | – | – | – | – | 43 | 2.4 | > 1000 | – | – | – |
| C=CC(=O)N1C(c2nc(-c3ccc(C(=O)Nc4ccccn4)cc3)c3c(N)nccn23)[C@@H]2C[C@H]1CN2C(=O)OC(C)(C)C (stereo partly drawn) [Example 126, (1 S,4S)-tert-butyl-5-acryloyl-6-(8-amino-1-(4-(pyridin-2-carbamoyl)phenyl)imidazo[1,5-a]pyrazin-3-yl)-2,5-diazabicyclo[2.2.1]heptane-2-carboxylate] | – | – | – | – | – | – | – | 4.4 | – | – | 0.8 | 1.6 | 206 |
